According to US20250289837A1, “MITOCHONDRIOTROPIC HETEROARYL BENZAMIDE POTASSIUM CHANNEL KV1.3 INHIBITORS” (UNIVERZA V LJUBLJANI, priority 2022, published 2025):

Columns and labels:
KV1.5 = KV1.5 (Homo sapiens, UniProt P22460); conditions: cited from earlier work
KV1.3 = conditions: cited from earlier work
[1] = system: human SAOS2, mouse B16F10 melanoma, and human B-CLL; conditions: cited from earlier work
[2] = system: HEK293 and K562 cells, and T and B cells from healthy subjects; conditions: cited from earlier work
Colo 357 tumor spheroids [3] = experiment: Apoptosis in tumor spheroids (3D culture), caspase 3/7 reporter; format: cell-based, human; conditions: 25 μM, FIG. 6
Experimental: FIG. 4. Levels of apoptosis observed in the presence of the indicated compounds during 48 h of treatment. Images were acquired every hour. Apoptosis was measured as activation of the executor caspases 3/7, using a fluorescent indicator. Mean±SEM, three replicates.
FIG. 5. Levels of apoptosis observed in the presence of the indicated compounds over time at two different concentrations (the curves for control and 5 μM are the same as in FIG. 4). Apoptosis was measured as activation of the executor caspases 3/7, using a fluorescent indicator. The open symbols in orange represent 5 μM, solid symbols indicate 25 μM.
FIG. 6. Comparison of the time course of the induction of apoptosis (orange) and of cell death (blue) in the presence of 25 μM compound 8. […]
To test the activity of the compounds on biological systems, we chose the pancreatic cancer cell line Colo 357, which expresses Kv1.3 and is sensitive to cell-permeant Kv1.3 inhibitors (Zaccagnino et al., Oncotarget 8, 38276-38293, 2017). Growth, cell viability and apoptosis were all determined by high content imaging in a Incucyte (Sartorius) live cell imaging device. […]
Cell death in 3D culture was also attributable to induction of apoptosis. […] The fluorescence of the caspase 3/7 reporter was detectable soon after addition of the treatment and was markedly more intense than the values measured in the control treatment (DMSO).

[4] = system: pancreatic cancer cell line Colo 357; experiment: Apoptosis in 2D culture, caspase 3/7 activity reporter; format: cell-based, human; conditions: 24 h incubation, FIG. 2; for Apoptosis induction (caspases 3/7 activation): already at 5 μM
Experimental: FIG. 2. Levels of apoptosis observed in the presence of the indicated compounds after 24 hours incubation. Apoptosis was measured as activation of the executor caspases 3/7, using a fluorescent indicator. The values were normalized against the apoptosis level observed in the presence of the solvent (DMSO). The symbols indicate biological replicates (with three technical replicates each).
(§1) To test the activity of the compounds on biological systems, we chose the pancreatic cancer cell line Colo 357, which expresses Kv1.3 and is sensitive to cell-permeant Kv1.3 inhibitors (Zaccagnino et al., Oncotarget 8, 38276-38293, 2017). Growth, cell viability and apoptosis were all determined by high content imaging in a Incucyte (Sartorius) live cell imaging device. Images were taken every hour for several days after addition of the compounds dissolved in DMSO (time 0) and the corresponding indicators, CytotoxGreen or CytotoxRed for cytotoxicity and the green Caspase 3/7 activity reporter for apoptosis.
The toxic effect of both compounds was induced through apoptosis, as expected from mitoKv1.3 inhibitors Urbani, A., et al., Front Cell Dev Biol 8, 620081, 2021). FIG. 2 represents apoptosis induction after 24 h incubation in the presence of compound 2 and 8 at the indicated concentrations.

Colo 357 tumor spheroids [5] = experiment: Cytotoxicity on tumor spheroids (3-D cultures), Cytotox green; format: cell-based, human; conditions: concentrations as low as 5 μM, 48 h treatment, FIG. 3
Experimental: FIG. 3. Cytotoxicity of the indicated compounds on tumor spheroids. Fluorescence of the dead-cell marker Cytotox green was monitored over time. In the Figure, fluorescence values after 48 h in the presence of the indicated concentration of the compound are reported normalized to the value obtained in the presence of DMSO. The symbols indicate biological replicates (with three technical replicates each).
as §1
To obtain information on the effect of the compounds in a model more similar to the situation in vivo, the effects of 2 and 8 were also studied in tumor spheroids. […] Cytotoxicity was determined as in the conventional 2D cultures but after 48 h treatment instead of 24 h, because the effects needed longer time to develop.

[6] = system: pancreatic cancer cell line Colo 357; experiment: Cytotoxicity in conventional 2D cultures, Cytotox green, Incucyte live cell imaging; format: cell-based; conditions: 24 hours of treatment, FIG. 1
Experimental: FIG. 1. Cytotoxicity of the indicated compounds. Cells plated on 96-well plates were incubated in the presence of 50 μM of the indicated compounds and fluorescence of the dead-cell marker Cytotox green was monitored over time. In the Figure, fluorescence values after 24 h are reported normalized to the value obtained in the presence of DMSO. […] The symbols indicate biological replicates (with three technical replicates each).
as §1
The first screening for cytotoxicity was performed on conventional 2D cultures (FIG. 1).

[7] = system: Jurkat leukemia T cells, mouse melanoma B16F10 cells, human PDAC cells (Bx-PC3, PANC-1, As-PC1, CAPAN-1); conditions: B16F10, Bx-PC3, PANC-1, As-PC1, CAPAN-1 cells; cited from earlier work
cancer cells = conditions: in vitro and in vivo studies; cited from earlier work
[8] = system: orthotopic melanoma B16F10; conditions: cited from earlier work; for B16F10 tumor volume: orthotopic mouse B16F10 melanoma model
[9] = system: human pancreatic Colo357 tumors; conditions: mice; cited from earlier work
[10] = cited from earlier work
[11] = system: KV1.1, KV1.2, KV1.5 and KV3.1; conditions: cited from earlier work
[12] = system: pancreatic ductal adenocarcinoma (PDAC) cells; conditions: cited from earlier work
[13] = system: orthotopic PDAC xenograft; conditions: SCID beige mouse; cited from earlier work

## O=c1ccc2c(OCCCCOc3ccccc3)c3ccoc3cc2o1 [PAP-1, 4-(4-phenoxybutoxy)-7H-furo[3,2-g]chromen-7-one]
KV1.5
  Selectivity over Kv1.5: […]
KV1.3
  IC50: […]
[1]
  Apoptosis in cancer cells: induced apoptosis
[2]
  Effects on healthy cells: did not show similar effects

## COc1ccccc1C(=O)NCC1(c2ccsc2)CCC(OC(=O)NCCCC[P+](c2ccccc2)(c2ccccc2)c2ccccc2)CC1.[I-] [Example 8, (4-(((((1S,4S)-4-((2-Methoxybenzamido)methyl)-4-(thiophen-3-yl)cyclohexyl)oxy)carbonyl)amino)butyl)triphenylphosphonium iodide]
Colo 357 tumor spheroids [3]
  Time course of apoptosis compared with cytotoxicity in spheroids: initiation of the decline in apoptosis signal corresponds to the start of the increase in the number of dead cells
[4]
  Dose dependence of the intensity of apoptosis induction: increased in a dose-dependent manner
  Apoptosis induction (caspases 3/7 activation): strong increase in apoptotic cells
Colo 357 tumor spheroids [5]
  Cytotoxicity in tumor spheroids: significant levels of cytotoxicity
[6]
  Cell death (cytotoxicity screening): most intense effect

## O=C(OCCC[P+](c1ccccc1)(c1ccccc1)c1ccccc1)Oc1ccc(OCCCCOc2c3ccoc3cc3oc(=O)ccc23)cc1.[I-] [PCTP, (3-(((4-(4-((7-oxo-7H-furo[3,2-g]chromen-4-yl)oxy)butoxy)phenoxy)carbonyl)oxy)propyl)triphenylphosphonium iodide]
[7]
  Cell death: induced cell death
Cancer cells
  Effectiveness compared with the parent PAP-1: much more effective than the parent PAP-1

## O=c1ccc2c(OCCCCc3ccccc3)c3ccoc3cc2o1 [Psora-4, 4-(4-Phenylbutoxy)-7H-furo[3,2-g][1]benzopyran-7-one]
KV1.3
  IC50: […]
[1]
  Apoptosis in cancer cells: induced apoptosis
[2]
  Effects on healthy cells: did not show similar effects

## COc1ccccc1C(=O)NC[C@]1(c2ccsc2)CC[C@H](OC(=O)NCCC[P+](c2ccccc2)(c2ccccc2)c2ccccc2)CC1.[I-] [Example 2, (3-(((((1S,4S)-4-((2-Methoxybenzamido)methyl)-4-(thiophen-3-yl)cyclohexyl)oxy)carbonyl)amino)propyl)triphenylphosphonium iodide]
[4]
  Dose dependence of the intensity of apoptosis induction: increased in a dose-dependent manner
  Apoptosis induction (caspases 3/7 activation): strong increase in apoptotic cells
Colo 357 tumor spheroids [5]
  Cytotoxicity in tumor spheroids: significant levels of cytotoxicity
[6]
  Cell death (cytotoxicity screening): most intense effect

## O=c1ccc2c(OCCCCOc3ccc(CCC[P+](c4ccccc4)(c4ccccc4)c4ccccc4)cc3)c3ccoc3cc2o1.[I-] [PAPTP, (3-(4-(4-((7-oxo-7H-furo[3,2-g]chromen-4-yl)oxy)butoxy)phenyl)propyl)triphenylphosphonium iodide]
[8]; co-applied with cisplatin
  Tumor volume reduction: more than 90%
[8]
  B16F10 tumor volume: greatly reduce
[7]
  Cell death: induced cell death
Cancer cells
  Effectiveness compared with the parent PAP-1: much more effective than the parent PAP-1
[9]
  Colo357 tumors: significant reductions

## O=C(NCCC[P+](c1ccccc1)(c1ccccc1)c1ccccc1)Oc1ccc(OCCCCOc2c3ccoc3cc3oc(=O)ccc23)cc1.[I-] [PCARBTP, (3-(((4-(4-((7-oxo-7H-furo[3,2-g]chromen-4-yl)oxy)butoxy)phenoxy)carbonyl)amino)propyl)triphenylphosphonium iodide]
[8]
  B16F10 tumor volume: greatly reduce
[7]
  Cell death: induced cell death
Cancer cells
  Effectiveness compared with the parent PAP-1: much more effective than the parent PAP-1
[9]
  Colo357 tumors: significant reductions
[10]; Dulbecco's modified Eagle medium
  Hydrolysis in culture medium: slow hydrolysis
[10]; physiological conditions, mouse blood
  Hydrolysis in mouse blood: hydrolyzed to PAPOH

## CC(C)N=c1cc2n(-c3ccc(Cl)cc3)c3ccccc3nc-2cc1Nc1ccc(Cl)cc1 [clofazimine, N,5-bis(4-chlorophenyl)-3-propan-2-yliminophenazin-2-amine]
[8]; orthotopic melanoma B16F10 line, mouse
  Reduction of tumor size: 90%
[11]
  Selectivity over KV1.1, KV1.2, KV1.5 and KV3.1: tenfold
[12]
  Apoptosis in PDAC cells: induced apoptosis
[13]
  Primary tumor weight: significantly reduced
KV1.3
  IC50: 300 nM
[1]
  Apoptosis in cancer cells: induced apoptosis
[2]
  Effects on healthy cells: did not show similar effects
